Tested on: patients of the REDUCE-IT and earlier EPA placebo-controlled trials
Assay type: in vivo, human
Conditions: R-I

CC/C=C\C/C=C\C/C=C\C/C=C\C/C=C\CCCC(=O)OCC [icosapent ethyl, eicosapentaenoic acid ethyl ester]
ARR: Platelet count: PCS Low <100 × 10^3/uL: −0.6% | ARR: SBP High (≥160 mmHg): −1.7% | ARR: SBP High and rose ≥20 mmHg: −1.1% | ARR: SBP Low (≤90 mmHg): 0.5% | ARR: SBP dropped ≥20 mmHg: 2.6% | ARR: SBP low and dropped ≥20 mmHg: 0.2% | ARR: SBP rose ≥20 mmHg: −0.7% | ARR: Urate high (Day 120): 4.4% | ARR: Urate high (Day 360): 3.9% | ARR: Urate high (Day 720): 3.4% | ARR: Urate high (Day 1080): 1.2% | ARR: Urate high (Day 1440): 1.3% | ARR: Urate high (Day 1800): 1.0% | ARR: Urate shift: normal to high (Day 120): 2.8% | ARR: Urate shift: normal to high (Day 360): 3.0% | ARR: Urate shift: normal to high (Day 720): 2.5% | ARR: Urate shift: normal to high (Day 1080): 0.8% | ARR: Urate shift: normal to high (Day 1440): 0.6% | ARR: Urate shift: normal to high (Day 1800): 0.2% | ARR: Urate shift: normal to low (Day 120): 0.1% | ARR: Urate shift: normal to low (Day 360): −0.1% | ARR: Urate shift: normal to low (Day 720): −0.2% | ARR: Urate shift: normal to low (Day 1080): −0.1% | ARR: Urate shift: normal to low (Day 1440): −0.4% | ARR: Uric acid PCS High >7.5 mg/dL (Women): 0.8% | ARR: Uric acid PCS High >8.0 mg/dL (Men): 4.2% | ARR: Uric acid PCS Low <1.9 mg/dL (Women): 0.0% | ARR: Uric acid PCS Low <2.5 mg/dL (Men): −0.2% | NNT: ALP high (Day 120): 67 | NNT: ALP high (Day 360): 50 | NNT: ALP high (Day 720): 41 | NNT: ALP high (Day 1080): 33 | NNT: ALP high (Day 1440): 34 | NNT: ALP high (Day 1800): 37 | NNT: ALP shift: normal to high (Day 120): 78 | NNT: ALP shift: normal to high (Day 360): 54 | NNT: ALP shift: normal to high (Day 720): 39 | NNT: ALP shift: normal to high (Day 1080): 34 | NNT: ALP shift: normal to high (Day 1440): 37 | NNT: ALP shift: normal to high (Day 1800): 39 | NNT: ALP shift: normal to low (Day 120): −267 | NNT: ALP shift: normal to low (Day 360): −359 | NNT: ALP shift: normal to low (Day 720): −252 | NNT: ALP shift: normal to low (Day 1080): −360 | NNT: ALP shift: normal to low (Day 1440): −956 | NNT: Albumin high (Day 120): −133 | NNT: Albumin high (Day 360): −138 | NNT: Albumin high (Day 720): −156 | NNT: Albumin high (Day 1080): −140 | NNT: Albumin high (Day 1440): −132 | NNT: Albumin shift: normal to high (Day 120): −123 | NNT: Albumin shift: normal to high (Day 360): −137 | NNT: Albumin shift: normal to high (Day 720): −140 | NNT: Albumin shift: normal to high (Day 1080): −248 | NNT: Albumin shift: normal to high (Day 1440): −145 | NNT: Bilirubin >1x ULN to 2x ULN: −29 | NNT: Bilirubin >2x ULN to 3x ULN: −497 | NNT: Bilirubin high (Day 120): −42 | NNT: Bilirubin high (Day 360): −50 | NNT: Bilirubin high (Day 720): −38 | NNT: Bilirubin high (Day 1080): −50 | NNT: Bilirubin high (Day 1440): −40 | NNT: Bilirubin high (Day 1800): −43 | NNT: Bilirubin shift: normal to high (Day 120): −77 | NNT: Bilirubin shift: normal to high (Day 360): −80 | NNT: Bilirubin shift: normal to high (Day 720): −76 | NNT: Bilirubin shift: normal to high (Day 1080): −95 | NNT: Bilirubin shift: normal to high (Day 1440): −57 | NNT: Bilirubin shift: normal to high (Day 1800): −81 | NNT: Calcium high (Day 120): 430 | NNT: Calcium high (Day 360): 1019 | NNT: Calcium high (Day 720): 325 | NNT: Calcium low (Day 120): −1944 | NNT: Calcium low (Day 360): −410 | NNT: Calcium low (Day 720): −567 | NNT: DBP High (≥100 mmHg): −165 | NNT: DBP High and Rose ≥10 mmHg: −264 | NNT: DBP Low (≤50 mmHG): −794 | NNT: DBP Low and dropped ≥10 mmHg: −3916 | NNT: DBP dropped ≥10 mmHG: −32 | NNT: DBP rose ≥10 mmHg: 158 | NNT: High platelets (Day 720): −162 | NNT: Low platelets (Day 360): 54 | NNT: Low platelets (Day 720): 144 | NNT: Low platelets (Day 1080): 85 | NNT: Platelet count: PCS Low <100 × 10^3/uL: 166 | NNT: SBP High (≥160 mmHg): 58 | NNT: SBP High and rose ≥20 mmHg: 87 | NNT: SBP Low (≤90 mmHg): −221 | NNT: SBP dropped ≥20 mmHg: −38 | NNT: SBP low and dropped ≥20 mmHg: −497 | NNT: SBP rose ≥20 mmHg: 140 | NNT: Urate high (Day 120): −22 | NNT: Urate high (Day 360): −26 | NNT: Urate high (Day 720): −29 | NNT: Urate high (Day 1080): −81 | NNT: Urate high (Day 1440): −76 | NNT: Urate high (Day 1800): −103 | NNT: Urate shift: normal to high (Day 120): −36 | NNT: Urate shift: normal to high (Day 360): −33 | NNT: Urate shift: normal to high (Day 720): −39 | NNT: Urate shift: normal to high (Day 1080): −127 | NNT: Urate shift: normal to high (Day 1440): −160 | NNT: Urate shift: normal to high (Day 1800): −422 | NNT: Urate shift: normal to low (Day 120): −1647 | NNT: Urate shift: normal to low (Day 360): 1418 | NNT: Urate shift: normal to low (Day 720): 533 | NNT: Urate shift: normal to low (Day 1080): 740 | NNT: Urate shift: normal to low (Day 1440): 280 | NNT: Uric acid PCS High >7.5 mg/dL (Women): −120 | NNT: Uric acid PCS High >8.0 mg/dL (Men): −24 | NNT: Uric acid PCS Low <1.9 mg/dL (Women): −1.58e+07 | NNT: Uric acid PCS Low <2.5 mg/dL (Men): 569 | Placebo-Adjusted % Change: Alkaline phosphatase (Day 120): −10.4% | Placebo-Adjusted % Change: Alkaline phosphatase (Day 360): −12.5% | Placebo-Adjusted % Change: Alkaline phosphatase (Day 720): −12.6% | Placebo-Adjusted % Change: Alkaline phosphatase (Day 1080): −14.1% | Placebo-Adjusted % Change: Alkaline phosphatase (Day 1440): −13.1% | Placebo-Adjusted % Change: DBP (Day 120): −.9% | Placebo-Adjusted % Change: DBP (Day 360): −.8% | Placebo-Adjusted % Change: DBP (Day 720): −.6% | Placebo-Adjusted % Change: DBP (Day 1080): −.5% | Placebo-Adjusted % Change: DBP (Day 1440): −.4% | Placebo-Adjusted % Change: SBP (Day 120): −1% | Placebo-Adjusted % Change: SBP (Day 360): −1.1% | Placebo-Adjusted % Change: SBP (Day 720): −1% | Placebo-Adjusted % Change: SBP (Day 1080): −1.1% | Placebo-Adjusted % Change: SBP (Day 1440): −.9% | Placebo-Adjusted % Change: Urate (Day 120): +4.31% | Placebo-Adjusted % Change: Urate (Day 360): +4.07% | Placebo-Adjusted % Change: Urate (Day 720): +3.66% | Placebo-Adjusted % Change: Urate (Day 1080): +2.94% | Placebo-Adjusted % Change: Urate (Day 1440): +3.23% | Risk Ratio (95% CI): ALP high (Day 120): 0.623 (0.485 to 0.801) 2 | Risk Ratio (95% CI): ALP high (Day 360): 0.542 (0.420 to 0.700) 3 | Risk Ratio (95% CI): ALP high (Day 720): 0.568 (0.449 to 0.717) 3 | Risk Ratio (95% CI): ALP high (Day 1080): 0.486 (0.375 to 0.630) 3 | Risk Ratio (95% CI): ALP high (Day 1440): 0.483 (0.362 to 0.644) 3 | Risk Ratio (95% CI): ALP high (Day 1800): 0.527 (0.362 to 0.767) 3 | Risk Ratio (95% CI): ALP shift: normal to high (Day 120): 0.401 (0.267 to 0.603) 3 | Risk Ratio (95% CI): ALP shift: normal to high (Day 360): 0.335 (0.227 to 0.497) 4 | Risk Ratio (95% CI): ALP shift: normal to high (Day 720): 0.397 (0.291 to 0.541) 4

Reference: US20210308089A1, “METHODS OF TREATING AND/OR PREVENTING VIRAL INFECTIONS AND/OR DISEASES CAUSED BY VIRUSES IN A SUBJECT IN NEED THEREOF” (priority 2020, published 2021)
